Source: PMC11093748, “De novo identification of CD4^+ T cell epitopes” (Nature Methods, 2024)

Experiments:
Format in all cases: cell-based, human
GSE.20D11 TCR [1] = test: HLA-DQ8 SABR-II (+ HLA-A2.1 SABR) library screen, enrichment score; details: combined class I and II library
Description: To test whether HLA-DQ8 SABR-II could be used for antigen discovery, we curated a list of insulin B, insulin C and HIP epitopes published by Wiles et al.[58] and cloned them into the DQ8 SABR-II backbone using the same pooled cloning strategy as the I-Ag7 SABR-II library (Supplementary Table 2). Furthermore, we combined SABR-I (the HLA-A*0201 library reported in our previous work[27]) and SABR-II libraries at a cellular level and screened against the GSE.20D11 TCR.
To generate the I-Ag7 restricted SABR library, we combined all Immune Epitope Database epitopes with a published immunopeptidome generated by Wan et al.[51]. Sequences were filtered remove all post-translational modifications except deamidation and HIPs and trimmed between 9–25 amino acid lengths. For the insulin C HIP and HLA-DQ8 library, non-contiguous epitopes from Wiles et al.[66] as well as all Immune Epitope Database epitopes were combined to generate the epitope list. Epitope sequences were back-translated using the backtranslate_fast.py script.
(§1) For SABR library screens, 3 × 10^6 NFAT–GFP Jurkat cells expressing the SABR library were labeled with CellTrace Violet (BioLegend) according to the manufacturer’s protocol before incubation with 3 × 10^6 Jurkat cells expressing the TCR of interest. These mixtures were incubated in a six-well plate for 16–20 h. Cells were stained with anti-CD69-APC-Cy7 where indicated (BioLegend) and the top 1–2% of GFP^+CD69^+ cells were sorted for genomic DNA extraction, indexing and sequencing (see below). Multiplexed assays were scaled on a per-TCR basis (for example 3 × 10^6 for each of three TCRs against 9 × 10^6 library cells). For single SABR assays, unless otherwise defined, 5 × 10^5 SABR expressing NFAT–GFP Jurkat cells (or 5KC cells) were labeled with CellTrace Violet (BioLegend) according to the manufacturer’s protocol before incubation with 5 × 10^5 TCR-expressing Jurkat cells (or 5KC cells) in a round-bottom 96-well plate for 16–20 h. Cells were stained with anti-CD69-APC-Cy7 when indicated and acquired on the Attune NxT flow cytometer (Thermo Fisher Scientific). All flow analysis was performed using FlowJo (BD). For Daudi cell co-culture, 1 × 10^6 Jurkat cells expressing the TCR of interest were incubated with 1 × 10^6 Daudi cells expressing a SABR of interest for 3 days. On day 3, cells were labeled with anti-RT1B-PE and anti-Fas-APC-Cy7 before being acquired on the Attune NxT flow cytometer.
Genomic DNA was extracted from sorted cells immediately after sorting, using the PureLink genomic DNA extraction kit (Life Technologies). The integrated SABR vectors were amplified with KOD polymerase (Millipore) and two rounds of amplification. In the first round, IDT-UD-SABR-C2-F and IDT-UD-SABR-C2-R primers were used to amplify the epitope. In the second round, UDI0001-R and UDI0001-F primers (representative of index 1) were used to add Illumina unique dual indexes (UDIs) to the amplicons. A different UDI was used for each sample. The reactions were pooled and purified with the NucleoSpin gel and PCR purification kit (Takara). The purified PCR product was checked before sequencing using 2% agarose gel and subjected to sequencing on a HiSeq4000 (Fulgent Genetics). Unaligned reads generated by the sequencer were stored in FASTQ files. FASTQ files were concatenated to generate one file for read1 and read2 each. The sequences were demultiplexed into individual indexes using demultiplex_dual.py. Epitopes were extracted and scored using epitope_extract_fastq_v1.1.py and merge_counts_split_v2.1.py. The ES was calculated using Microsoft Excel (Microsoft) workbooks.

GSE.6H9 TCR = test: Single SABR-II co-incubation, NFAT-GFP Jurkat (HLA-DQ8); details: HLA-DQ8 SABR-II
Description: (§2) We have previously described SABRs, which are chimeric receptors containing an extracellular pMHC complex attached to an intracellular CD28-CD3ζ signaling domain. […] We sought to expand this platform to allow antigen discovery for MHC/HLA-II with seamless integration with class I alleles. Here, we created SABRs to present epitopes in MHC-II alleles, by covalently linking the epitope to the β-chain of MHC-II that is attached to the CD28-CD3ζ signaling domains downstream, along with a 2A peptide-linked MHC-II α-chain (Fig. 1a,b). To test whether SABR-IIs could present epitopes to TCRs and induce a signal, we expressed them using lentiviral vectors in NFAT–GFP Jurkat cells, which express green fluorescent protein (GFP) upon NFAT activation and translocation downstream of CD3ζ activation (a kind gift from Y. Chen and A. Weiss). We constructed murine SABR-IIs presenting epitopes in I-Ab, I-Ad and I-Ag7 (Ova, […][41]; ATEG, […][42]; and 2.5mimo, […][43], respectively). We co-incubated the SABR-II-expressing NFAT–GFP Jurkat cells with a separate population of Jurkat cells expressing either the BDC2.5 TCR (recognizes I-Ag7-2.5mimo), OT-II TCR (recognizes I-Ab-Ova), 5-4-E8 TCR (recognizes I-Ad-ATEG) or no TCR. […] The signal from the NFAT–GFP reporter offered minimal background in absence of a cognate TCR and correlated with surface SABR expression in the presence of a cognate TCR (Extended Data Fig. 1c–e). […] We confirmed the ability of the DQ8-InsB9:23 SABR-II to present the epitope to two previously described, T1D patient-derived TCRs GSE.6H9 and GSE.20D11 (ref. [46]).
as §1

GSE.20D11 TCR [2] = test: as above; details: HLA-DQ8 SABR-II
Description: as §2, §1

SHLVEALYLVCGERG
enrichment in screen (in words) (GSE.20D11 TCR [1]): enriched at a high confidence level
frequency of GFP+CD69+ cells (in words) (GSE.6H9 TCR): high frequency of GFP^+CD69^+ cells
frequency of GFP+CD69+ cells (in words) (GSE.20D11 TCR [2]): high frequency of GFP^+CD69^+ cells
